Assay [1] has as its system Sinapis alba, Echinochloa crus-galli, Lolium multiflorum, Chrysanthemum segetum, Setaria spp., Abutilon theophrastic, Amaranthus retroflexus, Panicum miliaceum …. The assay is described as follows: Post-emergence effect on weeds (greenhouse pot test, visual scoring). The format is in vivo, mono- and dicotyledonous weeds. The settings on record: application rate of 1 kg or less of active substance per hectare; treated at three-leaf stage; scored visually after about 3 to 4 weeks. Here is the method:
Seeds or rhizome pieces of mono- and dicotyledonous weeds were placed in sandy loam soil in plastic pots, covered with soil and grown in a greenhouse under good growth conditions. Three weeks after sowing, the test plants were treated at the three-leaf stage. The compounds according to the invention, formulated as wettable powders or emulsion concentrates, were sprayed, at various dosages, onto the green parts of the plants at an application rate of 600 to 800 l of water/ha (converted). After the test plants had remained in the greenhouse for about 3 to 4 weeks under optimum growth conditions, the effect of the preparations was scored visually by comparison with untreated controls. The agents according to the invention also have good herbicidal activity post-emergence against a broad spectrum of economically important weed grasses and broad-leaved weeds.

Assay [2] relates to Sinapis alba, Chrysanthemum segetum, Avena sativa, Stellaria media, Echinochloa crus-galli, Lolium multiflorum, Setaria spp., Abutilon theophrasti, Amaranthus …. In words: Pre-emergence effect on weeds (greenhouse pot test, visual scoring). The settings on record: application rate of 1 kg or less of active substance per hectare; visually scored after 3 to 4 weeks vs untreated controls. The format is in vivo, mono- and dicotyledonous weed plants. From the text:
Seeds or rhizome pieces of mono- and dicotyledonous weed plants were placed in sandy loam soil in plastic pots and covered with soil. The compounds according to the invention, formulated in the form of wettable powders or emulsion concentrates, were then applied to the soil cover in the form of aqueous suspensions or emulsions at an application rate of 600 to 800 l of water/ha (converted), in various dosages. After the treatment, the pots were placed in a greenhouse and kept under good growth conditions for the weeds. After the test plants had emerged, the damage to the plants or the negative effect on the emergence was visually scored after a test period of 3 to 4 weeks by comparison with untreated controls. As shown by the test results, the compounds according to the invention have good herbicidal pre-emergence activity against a broad spectrum of week grasses and broad-leaved weeds.

Each structure is given as a SMILES string.

For the molecule `CCN(Cc1cccc(Oc2cc(C(F)(F)F)nn2C)n1)S(C)(=O)=O` [Example 4], the “herbicidal activity post-emergence against weed plants” value in assay [1] is reported as “very good herbicidal activity”. The “herbicidal activity pre-emergence against weed plants” value in assay [2] is on record as “very good herbicidal activity”.

The values above are taken from patent US20030229125A1, “Herbicidal substituted pyridines, their preparation, and their use as herbicides and plant growth regulators” (priority 2001, published 2003).
